Test results taken from patent US8450479B2, “3-substituted-4-oxo-3,4-dihydro-imidazo[5,1-d][1,2,3,5-tetrazine-8-carboxylic acid amides and their use” (Pharminox Limited, priority 2007, dated 2013).
Several values for one entry are separate records, joined by “and”; a condition that tells them apart may be missing. Equal values may be shown once. Read-outs that look alike come from different tables or passages of the source.

What was measured:
Format in all cases: cell-based
Glioma U373M (MGMT+) = test: MTT assay for 7-day toxicity assay; settings: Glioma U373M (MGMT+), 7-day MTT, single determinations
Experimental: (§1) The cell culture techniques were carried out in a Class II microbiological safety cabinet which was swabbed with 70% IMS in distilled water before each use. […] MRC-5 cells were cultured in EMEM. Cells were grown in a humidified incubator containing 5% CO2 at 37° C. Cells were sub-cultured when growth exceeded approximately 80% confluence, normally twice weekly. The medium was aspirated from the flask and approximately 0.8 mL trypsin-EDTA 1× solution added. The cells were re-incubated at 37° C. until they visibly detached from the flask. The cell suspension was then re-suspended in 5 mL medium and 0.5-1 mL of the cell suspension was transferred to a new flask (25 cm^2) with 7 mL culture medium. The cells were further incubated at 37° C. incubator. Cells were disposed after passage nearly 30 times in order to minimize phenotypic drift. New batches of cells were taken from liquid nitrogen storage by thawing rapidly (37° C. water bath) and re-suspension in a 25 cm^2 flask with 10 mL of culture medium. Two passages were allowed to resume normal growth. For long-term maintenance, viable cells at 60-80% confluence were detached by minimum amount of trypsin/EDTA and re-suspended in sterile filtered freezing medium (95% FBS, 5% DMSO), transferred to sterile cryogenic vials, and frozen overnight at −20° C. followed by −80° C. for 1-2 days and stored in liquid nitrogen for long term storage.
(§2) Most test compounds, including temozolomide, were prepared as stock solution (100 mM) in DMSO and stored at −20° C. for not more than 6 months.
(§3) Glioma cell lines, SNB19 and U373, both MGMT transfected (i.e., SNB19M and U373M) and vector controls (i.e., SNB19V and U373V); colorectal carcinoma cell lines, HCT116, HT29, and DLD1; melanoma cell line, SKMEL-28; breast cell line, MCF-7; and normal human fetal lung fibroblast cell line, MRC-5; were harvested at 60-80% confluence—during the logarithmic phase of growth.
(§4) Following harvesting, cells in suspension were gently syringed through a 23 gauge needle to obtain a near-single cell suspension. The desired cell seeding densities were used and added into 96-well plates in 180 μL culture medium if only one test compound was to be added, or 160 μL if two test compounds were to be added in combination, which were allowed to attach at 37° C. (5% CO2) overnight. For the 7 day assay, the cell seeding density for different cell lines was as follows: SNB19V, SNB19M: 650 cells/well; U373V, U373M: 650 cells/well; SNB19VR, U373VR: 650 cells/well; HCT116, DLD-1, SKMEL-28, MRC-5, MCF-7: 400 cells/well.
(§5) The two peripheral lanes were used as blank wells (cell free) and filled with 200 μL of medium in order to minimise medium evaporation from the plate. A separate time zero (T0) plate was set up alongside other plates. Serial dilutions in tissue culture medium of a 100 mM stock of test compound in DMSO were prepared immediately before each assay to ten times the final concentrations required, and then 20 μL was added to each well (200 μL total media per well) to achieve final concentrations of 0.5 μM, 1 μM, 5 μM, 10 μM, 50 μM, 100 μM, 500 μM, and 1000 μM. A minimum of four wells received the same test compound concentration. To control wells, including those in the T0 plate, 20 μL of medium was added. […] A separate plate treated in the same way, but free of test compound, was used as a measure of cell viability at the time of drug addition (day 0).
(§6) After incubation at 37° C., 5% CO2 for 7 days (or immediately for the day 0 plate), cell viability was quantified using the MTT assay. 50 μL of sterile filtered MIT (3-(4,5-dimethylthiazol-2-yl)-2,5-diphenyltetrazolium bromide) (2 mg/mL in phosphate buffered saline) were added to each well (final concentration 0.4 mg/mL) and the plates were re-incubated for 4 hours to allow metabolic conversion of MTT by dehydrogenases in viable cells to insoluble formazan crystals.
(§7) The intensity of absorbance is directly proportional to cell viability.

Glioma SNB19M (MGMT+) = test: MTT assay for 7-day toxicity assay; settings: Glioma SNB19M (MGMT+), 7-day MTT, single determinations
Experimental: as §1, §2, §3, §4, §5, §6, §7

Glioma SNB19V (MGMT−) = test: MTT assay for 7-day toxicity assay; settings: Glioma SNB19V (MGMT−), 7-day MTT, single determinations
Experimental: as §1, §2, §3, §4, §5, §6, §7

Glioma U373V (MGMT low) = test: MTT assay for 7-day toxicity assay; settings: Glioma U373V (MGMT low), 7-day MTT, single determinations
Experimental: as §1, §2, §3, §4, §5, §6, §7

[1] = tested on: Colon HT29 (MMR proficient); test: MTT assay for 7-day toxicity assay; settings: Homo sapiens, HT-29, 168 h, Colon HT29 (MMR proficient); 7-day MTT; single determinations; read-out: GI50
Experimental: (§8) The cell culture techniques were carried out in a Class II microbiological safety cabinet which was swabbed with 70% IMS in distilled water before each use. Glioma cells were routinely cultured in Costar tissue culture flasks in RPMI 1640 liquid medium (containing 0.3 g/L L-glutamine and 2 g/L sodium bicarbonate) supplemented with 10% heat inactivated FBS (55-59° C.) for 1 hour to denature complement proteins which would otherwise evoke a cellular immune response resulting in cell lysis, 1% non-essential amino acids, 50 μg/mL gentamicin and 400 μg/mL G418 (vector selected reagent). Colorectal and melanoma cells were maintained in RPMI 1640 supplemented with 10% FBS. MRC-5 cells were cultured in EMEM. Cells were grown in a humidified incubator containing 5% CO2 at 37° C. Cells were sub-cultured when growth exceeded approximately 80% confluence, normally twice weekly. The medium was aspirated from the flask and approximately 0.8 mL trypsin-EDTA 1× solution added. The cells were re-incubated at 37° C. until they visibly detached from the flask. The cell suspension was then re-suspended in 5 mL medium and 0.5-1 mL of the cell suspension was transferred to a new flask (25 cm^2) with 7 mL culture medium. The cells were further incubated at 37° C. incubator. Cells were disposed after passage nearly 30 times in order to minimize phenotypic drift. New batches of cells were taken from liquid nitrogen storage by thawing rapidly (37° C. water bath) and re-suspension in a 25 cm^2 flask with 10 mL of culture medium. Two passages were allowed to resume normal growth. For long-term maintenance, viable cells at 60-80% confluence were detached by minimum amount of trypsin/EDTA and re-suspended in sterile filtered freezing medium (95% FBS, 5% DMSO), transferred to sterile cryogenic vials, and frozen overnight at −20° C. followed by −80° C. for 1-2 days and stored in liquid nitrogen for long term storage.
as §2
(§9) This assay was first described in Mosmann, T., 1983, “Rapid colorimetric assay for cellular growth and survival: Application to proliferation and cytotoxicity assays”, Journal of Immunological Methods, Vol. 65, Nos. 1-2, pp. 55-63.
as §3, §4
(§10) The two peripheral lanes were used as blank wells (cell free) and filled with 200 μL of medium in order to minimise medium evaporation from the plate. A separate time zero (T0) plate was set up alongside other plates. Serial dilutions in tissue culture medium of a 100 mM stock of test compound in DMSO were prepared immediately before each assay to ten times the final concentrations required, and then 20 μL was added to each well (200 μL total media per well) to achieve final concentrations of 0.5 μM, 1 μM, 5 μM, 10 μM, 50 μM, 100 μM, 500 μM, and 1000 μM. A minimum of four wells received the same test compound concentration. […]

[2] = tested on: Colon HCT116 (MMR mutated); test: MTT assay for 7-day toxicity assay; settings: Colon HCT116 (MMR mutated), 7-day MTT, single determinations, read-out: GI50
Experimental: as §8, §2, §9, §3, §4, §10

[3] = tested on: Melanoma SKMEL-28 (MMR proficient); test: MTT assay for 7-day toxicity assay; settings: Homo sapiens, SK-MEL-28, 168 h, Melanoma SKMEL-28 (MMR proficient); 7-day MTT; single determinations; read-out: GI50
Experimental: as §8, §2, §9, §3, §4, §10

Colon DLD1 = test: MTT assay for 7-day toxicity assay; settings: Homo sapiens, DLD-1, 168 h; Colon DLD1; 7-day MTT; single determinations; read-out: GI50
Experimental: as §8, §2, §9, §3, §4, §10

[4] = tested on: glioma MGMT− and MGMT+ cell lines; test: MTT assay, glioma lines as a whole
From the text: as §9, §3, §4
The two peripheral lanes were used as blank wells (cell free) and filled with 200 μL of medium in order to minimise medium evaporation from the plate. A separate time zero (T0) plate was set up alongside other plates. Serial dilutions in tissue culture medium of a 100 mM stock of test compound in DMSO were prepared immediately before each assay to ten times the final concentrations required, and then 20 μL was added to each well (200 μL total media per well) to achieve final concentrations of 0.5 μM, 1 μM, 5 μM, 10 μM, 50 μM, 100 μM, 500 μM, and 1000 μM. A minimum of four wells received the same test compound concentration. To control wells, including those in the T0 plate, 20 μL of medium was added. Previous assays had been carried out to verify that cell viability was not affected by the amount of DMSO added into the test compound-treated wells. A separate plate treated in the same way, but free of test compound, was used as a measure of cell viability at the time of drug addition (day 0).
as §6, with “crystals. The medium and any unconverted MTT was aspirated, 150 μL of DMSO was added to each well, and the plates were shaken on a plate shaker (Stuart Scientific 503) to ensure complete formazan solubilisation.” for “crystals.”
The intensity of absorbance is directly proportional to cell viability. A linear relationship exists between cell number and the amount of formazan and so the mean absorbance determined for each well of the same concentration can be used as a quantitative measure of viable cells compared to the controls. A graph of absorbance against drug concentration was plotted and the test compound concentration (GI50) causing 50% inhibition of control cell growth (absorbance increase from day 0) was calculated by interpolation.

[5] = tested on: Glioma SNB19VR (MGMT−) (TMZ resistant); test: MTT assay for 7-day toxicity assay; settings: Glioma SNB19VR (MGMT−, TMZ resistant), 7-day MTT, single determinations, read-out: GI50
Experimental: as §8, §2, §9, §3, §4, §10

[6] = tested on: Normal Human Fetal Lung Fibroblast MRC-5; test: MTT assay for 7-day toxicity assay; settings: Normal Human Fetal Lung Fibroblast MRC-5, 7-day MTT, single determinations, read-out: GI50
Experimental: as §8, §2, §9, §3, §4, §10

Compound	GI50 (Glioma SNB19M (MGMT+); 168 h)	GI50 (Glioma SNB19M (MGMT+))	GI50 (Glioma SNB19V (MGMT−); 168 h)	GI50 (Glioma SNB19V (MGMT−))	GI50 [1]	GI50 ([2]; Homo sapiens, HCT-116, 168 h)	GI50 [3]	GI50 (Colon DLD1)	GI50 (Glioma U373M (MGMT+); 168 h, read-out: GI50)	GI50 (Glioma U373M (MGMT+); read-out: GI50)	GI50 (Glioma SNB19M (MGMT+); 168 h, read-out: GI50)	GI50 (Glioma SNB19M (MGMT+); read-out: GI50)	GI50 (Glioma SNB19V (MGMT−); 168 h, read-out: GI50)	GI50 (Glioma SNB19V (MGMT−); read-out: GI50)	also measured
C[C@@H](c1ccccc1)n1nnc2c(C(N)=O)ncn2c1=O [BB-002, (S)-3-(−1-Phenylethyl)-8-carbamoylimidazotetrazin-4-one]	41.2 µM	49.7 µM	35.3 µM	34.1 µM	243 µM	206 µM	222 µM	–	–	–	–	–	–	–	GI50 (Glioma U373M (MGMT+); 168 h): 69.6 µM; GI50 (Glioma U373M (MGMT+)): 95 µM; GI50 (Glioma U373V (MGMT low); 168 h): 61.6 µM; GI50 (Glioma U373V (MGMT low)): 70.7 µM
NC(=O)c1ncn2c(=O)n(CCc3ccccc3)nnc12 [DD-001, 4-oxo-3-phenethyl-3,4-dihydroimidazo[5,1-d][1,2,3,5]tetrazine-8-carboxamide]	95 µM	70.2 µM and 92.6 µM	77 µM	128 µM and 91.1 µM	498 µM	302 µM	424 µM	385 µM	–	–	–	–	–	–	–
NC(=O)Cn1nnc2c(C(N)=O)ncn2c1=O [JJ-001, 2-(8-Carbamoyl-oxoimidazo[5,1-d][1,2,3,5]tetrazin-3(4H)-yl)ethanamide]	–	–	–	–	–	–	–	–	86.7 µM	58 µM	107 µM	83.2 µM	37.5 µM	38.5 µM	GI50 (Glioma U373V (MGMT low); 168 h, read-out: GI50): 56.2 µM; GI50 (Glioma U373V (MGMT low); read-out: GI50): 74.6 µM; activity in words ([4]; glioma MGMT− and MGMT+ cell lines): good activity
CCOC(=O)CCn1nnc2c(C(N)=O)ncn2c1=O [LL-002, Ethyl 3-(8-carbamoyl-oxoimidazo[5,1-d][1,2,3,5]tetrazin-3(4H)-yl)propanoate]	–	–	–	–	–	–	–	–	156 µM	131 µM	248 µM	261 µM	447 µM	288 µM	fold less active than the acetic acid ester derivatives LL-003 and PX-016 ([4]; Table 10, glioma cell lines): > 10 fold
NC(=O)c1ncn2c(=O)n(Cc3ccco3)nnc12 [PX-004]	–	–	–	–	27.2 µM	70.9 µM	53.4 µM	45.4 µM	–	–	–	–	–	–	GI50 ([5]; 168 h): 50.1 µM; GI50 [5]: 52.5 µM; GI50 [2]: 55.6 µM; GI50 ([6]; Homo sapiens, MRC5, 168 h): 60.3 µM; GI50 [6]: 55.5 µM
